Series [1] deals with squeak response of mouse to electrical stimulation of the tail root. The experiment in a line: Analgesic activity: (B) electrical stimulation method. Type of series: in vivo, mice of ddY strain. Conditions: ip, mice, Weil's method. The method, then: The analgesic activity of the 2-aminomethyl-5-phenyloxazoles was compared with that of aminopyrine.
(B) Electrical stimulation method
Five male mice of ddY strain, each weighing between 25 to 30 grams were used for each group.
Bipolar electrode was placed on the tail root of mouse. The mouse was stimulated with a square wave (5 m sec, 1 Hz), and the minimum voltage of squeak response was measured at 5, 10, 15, 30, 45 and 60 minutes after intraperitoneal administration of the test compound. Positive analgesic response was determined in cases where increase in the minimum voltage was observed. ED50 was calculated according to Weil's method. The acute toxicity values (LD50) of the […] were determined in the following manner: […]

The subject of series [2] is carageenin-induced rat paw inflammation. In words: Anti-inflammatory activity: carrageenin-induced rat paw inflammation (edema), oral. Type of series: in vivo, rats of Wistar-King strain. Conditions: 3 hours after carrageenin, read-out: Anti-inflammatory Activity (carageenin-induced rat paw inflammation) Percent Inhibition of Swelling; for inhibition in vivo at 25 mg/kg: oral dose 25 mg/kg; for inhibition in vivo at 50 mg/kg: oral dose 50 mg/kg; for inhibition in vivo at 100 mg/kg: oral dose 100 mg/kg; for inhibition in vivo at 12.5 mg/kg: oral dose 12.5 mg/kg. On the procedure:
The anti-inflammatory activity of the 2-aminomethyl-5-phenyloxazoles was compared with that of aminopyrine.
Eight male rats of Wistar-King strain, each weighing between 120 to 150 grams, were used for each group. The hind paw of the rats was injected subcutaneously with 0.1 ml of 1% carrageenin suspension. The volume of the paw was measured plethysmographically 3 hours after the injection, and the difference in volume between the edematous foot and the normal foot was regarded as the degree of edema. Each percent inhibition was calculated in comparison with the control. The test compounds were administered orally 30 minutes before the injection of carrageenin.

For series [3], the system named is AcOH induced Writhing in Mice. In words: Analgesic activity: (A) writhing syndrome induced by acetic acid. Type of series: in vivo, mice of ddY strain. The following applies: Mus musculus, sc, Litchfield-Wilcoxon's method. On the procedure: (A) Writhing syndrome induced by acetic acid Six male mice of ddY strain, each weighing between 25 to 30 grams were used in the present experiment. […] Thereafter, the total number of writhings of a group was recorded for 20 minutes, and percent inhibition was calculated in comparison with the control. ED50 was calculated according to Litchfield-Wilcoxon's method.

Series [4] can be described thus: Acute toxicity (LD50), mortality observed for 168 hours. The following applies: mouse, in vivo, ip. On the procedure: Bipolar electrode was placed on the tail root of mouse. The mouse was stimulated with a square wave (5 m sec, 1 Hz), and the minimum voltage of squeak response was measured at 5, 10, 15, 30, 45 and 60 minutes after intraperitoneal administration of the test compound. Positive analgesic response was determined in cases where increase in the minimum voltage was observed. ED50 was calculated according to Weil's method. The acute toxicity values (LD50) of the 2-aminoethyl-5-phenyloxazoles were determined in the following manner:
LD50 was calculated according to Weil's method.

Where [5] appears, read: mice, mortality for 168 hours, Weil's method.

ED50, inhibition in vivo and LD50 data for 22 molecules are collected here from patent US4123541A, “2-Aminomethyl-5-phenyloxazoles and the pharmaceutically acceptable salts thereof” (Mitsubishi Chemical Industries Limited, priority 1976, dated 1978).

Read-outs that look alike come from different tables or passages of the source.

Turning to `CNCc1ncc(-c2ccccc2)o1`, the ED50 in series [1] stood at 32 mg/kg. For the same molecule, in series [2], the inhibition in vivo at 25 mg/kg turned out to be 5%, the inhibition in vivo at 50 mg/kg turned out to be 40% and the inhibition in vivo at 100 mg/kg amounted to 48%. The 50% effect level in series [3] (ED50) was put at a dose of 10.1 mg/kg. The LD50 at 168 h in series [4] (read-out: LD50 in Mice) worked out at 238 mg/kg.

Regarding `OCCN1CCN(Cc2ncc(-c3ccc(F)cc3)o2)CC1`, in series [2], the inhibition in vivo at 50 mg/kg was determined as 8% and the inhibition in vivo at 100 mg/kg amounted to 54%. The molecule further showed an LD50 at 168 h in series [4] (setting [5]) of 336 mg/kg.

`OCCN1CCN(Cc2ncc(-c3ccc(Cl)c(Cl)c3)o2)CC1`: in series [2], the inhibition in vivo at 100 mg/kg turned out to be 14%. In addition, the LD50 at 168 h in series [4] (setting [5]) was 141 mg/kg.

`CNCc1ncc(-c2ccccc2Cl)o1`: in series [2], the inhibition in vivo at 100 mg/kg was found to be 14%. The same molecule returned an LD50 at 168 h in series [4] (setting [5]) of 141 mg/kg.

In series [1], `OCCN1CCN(Cc2ncc(-c3ccc(Cl)cc3)o2)CC1` yielded a median effective dose (ED50) of 30.8 mg/kg. Moreover, in series [2], the inhibition in vivo at 12.5 mg/kg is 6%, the inhibition in vivo at 25 mg/kg came out at 27%, the inhibition in vivo at 50 mg/kg was found to be 57% and the inhibition in vivo at 100 mg/kg was 50%. The 50% effect level in series [3] (ED50) was put at a dose of 16 mg/kg. The LD50 at 168 h in series [4] (read-out: LD50 in Mice) was 283 mg/kg.

In series [1], `CCNCc1ncc(-c2ccccc2Cl)o1` displayed an ED50 of 54 mg/kg. In addition, the inhibition in vivo at 100 mg/kg in series [2] was found to be 14%. Also, the LD50 at 168 h in series [4] (read-out: LD50 in Mice) is 141 mg/kg.

In the case of `CCNCc1ncc(-c2ccccc2)o1`, in series [1], the 50% effect level (ED50) was put at a dose of 21.4 mg/kg. In series [2], the inhibition in vivo at 50 mg/kg was 23% and the inhibition in vivo at 100 mg/kg amounted to 47%. In addition, the LD50 at 168 h in series [4] (read-out: LD50 in Mice) stood at 141 mg/kg.

Turning to `CCCNCc1ncc(-c2ccc(Cl)cc2)o1`, it took a dose of 47 mg/kg to reach the 50% effect level in series [1] (ED50). Also, in series [2], the inhibition in vivo at 50 mg/kg was found to be 24% and the inhibition in vivo at 100 mg/kg was found to be 38%. Also, the LD50 at 168 h in series [4] (read-out: LD50 in Mice) was 566 mg/kg.

`CN(C)Cc1ncc(-c2ccc(Cl)cc2)o1`: the ED50 in series [1] is 77 mg/kg; in series [3], 78 mg/kg. The inhibition in vivo at 100 mg/kg in series [2] was 7%. For the same molecule, the LD50 at 168 h in series [4] (read-out: LD50 in Mice) amounted to 336 mg/kg.

Molecule `NCc1ncc(-c2ccc(Cl)cc2)o1` registered a median effective dose (ED50) in series [1] of 50 mg/kg. Further, in series [2], the inhibition in vivo at 25 mg/kg was determined as 25%, the inhibition in vivo at 50 mg/kg was found to be 29% and the inhibition in vivo at 100 mg/kg stood at 65%. Also, the ED50 in series [3] is 6 mg/kg. The LD50 at 168 h in series [4] (read-out: LD50 in Mice) amounted to 476 mg/kg.

As to `CNCc1ncc(-c2ccc(Cl)cc2)o1`, the ED50 came out at 46 mg/kg in series [1] and 22 mg/kg in series [3]. Moreover, the inhibition in vivo at 100 mg/kg in series [2] was determined as 17%. The LD50 at 168 h in series [4] (read-out: LD50 in Mice) came out at 141 mg/kg.

As to `CNCc1ncc(-c2cccc(Cl)c2)o1`, the inhibition in vivo at 100 mg/kg in series [2] was 21%. In series [4] (setting [5]), this molecule had an LD50 at 168 h of 283 mg/kg.

For `Cc1c(N(C)C)c(=O)n(-c2ccccc2)n1C` [Aminopyrine, reference compound], the 50% effect level in series [1] (ED50) was put at a dose of 96 mg/kg. Besides, in series [2], the inhibition in vivo at 12.5 mg/kg turned out to be 9%, the inhibition in vivo at 25 mg/kg was 23%, the inhibition in vivo at 50 mg/kg stood at 47% and the inhibition in vivo at 100 mg/kg is 65%. Besides, the median effective dose (ED50) in series [3] was 37 mg/kg. The LD50 at 168 h in series [4] (setting [5]) came to 270 mg/kg.

Turning to `CCCNCc1ncc(-c2cccc(Cl)c2)o1`, in series [2], the inhibition in vivo at 50 mg/kg is 4% and the inhibition in vivo at 100 mg/kg was determined as 32%. This molecule also showed an LD50 at 168 h in series [4] (setting [5]) of 283 mg/kg.

Consider `CCN(CC)Cc1ncc(-c2ccc(Cl)cc2)o1`, for which, in series [2], the inhibition in vivo at 50 mg/kg came to 24% and the inhibition in vivo at 100 mg/kg is 44%. Also, the LD50 at 168 h in series [4] (setting [5]) was found to be 238 mg/kg.

The molecule `CCCNCc1ncc(-c2ccc(F)cc2)o1` gave an ED50 in series [1] of 54 mg/kg. In series [2], the inhibition in vivo at 50 mg/kg amounted to 45% and the inhibition in vivo at 100 mg/kg came out at 53%. Besides, in series [4] (read-out: LD50 in Mice), the LD50 at 168 h stood at 238 mg/kg.

For the molecule `CCNCc1ncc(-c2ccc(Cl)c(Cl)c2)o1`, in series [2], the inhibition in vivo at 25 mg/kg came to 27%, the inhibition in vivo at 50 mg/kg turned out to be 56% and the inhibition in vivo at 100 mg/kg was determined as 68%. The molecule also gave an LD50 at 168 h in series [4] (setting [5]) of 141 mg/kg.

For `CCNCc1ncc(-c2ccc(Br)cc2)o1`, in series [2], the inhibition in vivo at 100 mg/kg was 22%. For the same molecule, the LD50 at 168 h in series [4] (setting [5]) was 168 mg/kg.

In turn, `CCNCc1ncc(-c2ccc(Cl)cc2)o1` displayed an ED50 in series [1] of 35 mg/kg. Besides, in series [2], the inhibition in vivo at 12.5 mg/kg was determined as 16%, the inhibition in vivo at 25 mg/kg came to 43%, the inhibition in vivo at 50 mg/kg came out at 65% and the inhibition in vivo at 100 mg/kg stood at 60%. In addition, in series [3], the ED50 stood at 1.9 mg/kg. Moreover, the LD50 at 168 h in series [4] (read-out: LD50 in Mice) is 283 mg/kg.

As for `OCCN1CCN(Cc2ncc(-c3ccccc3)o2)CC1`, the inhibition in vivo at 100 mg/kg in series [2] amounted to 6%. Besides, in series [4] (setting [5]), the LD50 at 168 h turned out to be 283 mg/kg.

On to `NCc1ncc(-c2ccccc2Cl)o1`, for which, in series [2], the inhibition in vivo at 25 mg/kg was determined as 28%, the inhibition in vivo at 50 mg/kg stood at 58% and the inhibition in vivo at 100 mg/kg turned out to be 42%. In series [4] (setting [5]), the LD50 at 168 h came out at 283 mg/kg.

As for `CNCc1ncc(-c2ccc(F)cc2)o1`, in series [2], the inhibition in vivo at 50 mg/kg was determined as 38% and the inhibition in vivo at 100 mg/kg was found to be 55%. This molecule showed an LD50 at 168 h in series [4] (setting [5]) of 141 mg/kg.
